Here are results for two molecules from patent US7709490B2, “4,5-diphenyl-pyrimidinyl substituted carboxylic acids, method for the production and use thereof as medicaments” (Sanofi-Aventis, priority 2006, dated 2010).

The target of the assay is T1, GPCR GPR40 (Homo sapiens, UniProt O14842).
T1 construct: expressed in transfected cells; host or cells: HEK293
The experiment in a line: In vitro FLIPR assay with recombinant cells which express the GPCR GPR40. In kind it is cell-based. Conditions: 100 μM test substance; intracellular Ca2+ change in recombinant HEK293 cells expressing GPR40; relative to control (0%: no test substance; 100%: 10 μM linoleic acid). As to the method: In Vitro FLIPR Assay with Recombinant Cells which Express the GPCR GPR40
Function-testing assays were carried out by means of the FLIPR technique (“Fluorescence Imaging Plate Reader”, Molecular Devices Corp.). For this purpose, agonist-induced changes in the intracellular concentration of Ca^2+ in recombinant HEK293 cells which expressed the GPCR GPR40 were determined.
For the investigations, cells were seeded in 96-well microtiter plates (60 000 cells/well) and allowed to grow overnight. The medium was removed and the cells were incubated in buffer which contained the fluorescent dye fluo-4. After this loading with dye, the cells were washed, test substance was added, and changes in the intracellular Ca^2+ concentration were measured in the FLIPR instrument. Results have been presented as percentage change relative to the control (0%: no test substance added; 100%: 10 μM reference agonist linoleic acid added).

T1 sequence (O14842 whole entry): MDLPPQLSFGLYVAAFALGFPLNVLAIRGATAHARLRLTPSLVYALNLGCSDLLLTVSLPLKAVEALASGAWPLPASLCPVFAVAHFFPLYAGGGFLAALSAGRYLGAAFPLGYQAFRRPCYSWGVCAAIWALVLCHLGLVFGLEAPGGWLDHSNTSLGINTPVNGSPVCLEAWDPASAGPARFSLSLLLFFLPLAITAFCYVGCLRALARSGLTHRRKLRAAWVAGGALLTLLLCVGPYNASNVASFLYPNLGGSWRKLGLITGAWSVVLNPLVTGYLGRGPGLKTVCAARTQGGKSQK

Turning to `O=C(O)CCCC#Cc1ncc(-c2ccccc2)c(-c2ccccc2)n1` [Example 1], the “% activation @ 100 μM” value stood at 58%.

On to `O=C(O)CCCCC#Cc1ncc(-c2ccccc2)c(-c2ccccc2)n1` [Example 2, 7-(4,5-Diphenylpyrimidin-2-yl)-6-heptynoic Acid], for which the “% activation @ 100 μM” value is listed as 104%.
